Measured values as given in patent US11015215B2, “Use of high flux SCFA-derivatized monosaccharides in recombinant glycoprotein production” (The Johns Hopkins University, priority 2014, dated 2021).

Experiments:
[1] = test system: individual sites of N-glycosylation; details: cited from earlier work
cell surface sialylation = assay: Overall sialylation of cell surface glycoconjugates after analog supplementation; type: cell-based
host cells [2] = details: cited from earlier work; for side effects (e.g., cytotoxicity): compared to perbutanoylated, 3,4,6-tributanoylated or peracetylated counterparts; for cytotoxicity over prolonged exposure: beyond 2 to 3 days, up to and within two weeks
sialic acid pathway = details: cited from earlier work; for efficiency relative to the unmodified sugar: sialic acid production as endpoint
[3] = test system: hexosamine biosynthetic pathway; details: cited from earlier work
[4] = test system: human protein integrin α4 stably expressed in a CHO line; assay: Azido-sugar labeling of integrin α4 in CHO cells (click biotinylation, streptavidin blot); type: cell-based; details: 100 μM, 24 hours
Method: Whole cell lysate from cells treated with 100 μM 1,3,4-O-Bu3ManNAz for 24 hours and “click” chemistry biotinylated were probed with streptavidin (lane 1), and from the same whole cell lysate, integrin α4β1 was immunopurified using human […] antibody and probed with streptavidin (lane 2). Immunopurified integrin α4β1 was again incubated with the human anti-MUC1 antibody and re-purified (lane 3). The band in lane 4 was the same sample as lane 3 but probed with anti-human integrin α4.
FIG. 2 depicts the result of treating the sample of FIG. 1, lane 3, with PNGAse F and sialidase, with samples then visualized using streptavidin HRP.
The use of tri-butanoylated monosaccharides was examined, initially using 1,3,4-O-Bu3ManNAz to label integrin α4 in CHO cells.

host cells [5] = details: cited from earlier work
GalNAc salvage pathway = details: cited from earlier work

## CCCC(=O)OC1OC(CO)[C@@H](OC(=O)CCC)[C@H](OC(=O)CCC)C1NC(C)=O (stereo partly shown) [1,3,4-O-Bu3ManNAc, tri-butanoylated ManNAc]
[1]; about ⅓ of sites
  increase in sialylation, about ⅓ of glycosylation sites with dramatic increases: ≥ 8 fold
  increase in sialylation, about ⅓ of glycosylation sites with modest increase: ≤ 2 fold
  level of sialylation, about ⅓ of glycosylation sites that did not respond: remained unchanged
[1]
  increase in degree of sialylation of specific N-glycans: ≥ 8 fold
Cell surface sialylation
  increase in overall sialylation (cell surface / glycoconjugates): 50 to 75%
Host cells [2]
  whole molecule toxicity: lack “whole molecule” toxicity
Host cells [2]; in most cell lines
  growth inhibition: mild growth inhibition
Sialic acid pathway
  flux into the sialic acid pathway: high levels of flux

## CCCC(=O)OC1OC(CO)[C@@H](OC(=O)CCC)[C@H](OC(=O)CCC)C1NC(C)=O (stereo partly shown) [1,3,4-O-Bu3GlcNAc]
[3]
  flux into the hexosamine biosynthetic pathway: high levels of flux
Host cells [2]
  side effects (e.g., cytotoxicity): minimal side effects

## CCCC(=O)OC1OC(CO)[C@@H](OC(=O)CCC)[C@H](OC(=O)CCC)C1NC(=O)CN=[N+]=[N-] (stereo partly shown) [1,3,4-O-Bu3ManNAz]
[4]
  labeling of integrin α4: definitive labeling

## CCCC(=O)O.COc1cccc(C#CCON=C2CN3CCC2C3)c1 (stereo not shown) [n-butyrate]
Host cells [5]
  concentration required to elicit desired cell responses: ≥ 10 mM

## CCCC(=O)OCC1OC(OC(=O)CCC)C(NC(C)=O)[C@@H](OC(=O)CCC)[C@@H]1OC(=O)CCC (stereo partly shown) [Bu4ManNAc, perbutanoylated ManNAc, reference compound]
Host cells [2]
  cytotoxicity over prolonged exposure: host cells died
Host cells [2]; within 2 or 3 days of treatment
  effect on cell growth: slowed cell growth
Sialic acid pathway
  efficiency relative to the unmodified sugar: ~2,100 fold

## CC(=O)NC1C(OC(C)=O)OC(COC(C)=O)[C@@H](OC(C)=O)[C@@H]1OC(C)=O (stereo partly shown) [Ac4ManNAc, peracetylated ManNAc]
Cell surface sialylation
  increase in overall sialylation (cell surface / glycoconjugates): 10 to 25%
Host cells [2]
  cytotoxicity over prolonged exposure: cytotoxicity over prolonged exposure to cells
Sialic acid pathway
  efficiency relative to the unmodified sugar: several hundred fold more efficient

## CC(=O)NC1C(O)OC(CO)[C@@H](O)[C@@H]1O (stereo partly shown) [ManNAc]
Cell surface sialylation
  increase in overall sialylation (cell surface / glycoconjugates): 5 to 10%
Sialic acid pathway
  concentration supplemented to the cell culture media for a robust increase in sialic acid production: up to 50 mM

## CCCC(=O)OC1OC(CO)[C@H](OC(=O)CCC)[C@H](OC(=O)CCC)C1NC(C)=O (stereo partly shown) [1,3,4-O-Bu3GalNAc]
GalNAc salvage pathway
  flux into the GalNAc salvage pathway: high levels of flux
Host cells [2]
  side effects (e.g., cytotoxicity): minimal side effects
